Measurements published in patent US11261193B2, “Morphic forms of G1T38 and methods of manufacture thereof” (G1 Therapeutics, Inc., priority 2017, dated 2022).
≈ marks a conversion by molar mass, not a printed value. Entries after “also recorded” stand apart in the source; their conditions may differ. Read-outs that look alike come from different tables or passages of the source.

Assays:
[1] = Stability study under thermal stress (oven at 60° C. for 7 days); format: physicochemical; details: for XRPD pattern / stability after thermal stress: 60° C. for 7 days
Procedure: Forms A, B, and D were stored in an oven maintained at 60° C. for 7 days.

[2] = Dynamic vapor sorption (moisture sorption) experiment; format: physicochemical; details: for XRPD (post DVS): form by XRPD after moisture sorption, sample dried at 60° C. and 0% RH; for % wt change at 60% RH: moisture adsorbed at 60% RH; for % wt change at 90% RH: moisture adsorbed at 90% RH
[3] = Twelve-month stability study at 25° C./60% RH; format: physicochemical; details: for Appearance / HPLC Purity / Moisture (%) / XRPD: 25° C./60% RH
Procedure: (§1) Form B was stored at 25° C./60% RH for twelve months and at 40° C./75% RH for six months.

[4] = TG-IR experiment monitoring potential release of hydrogen chloride; format: physicochemical; details: heated at 20° C./minute to approximately 140° C.; listed as pure Form B
Procedure: Thermogravimetric infrared (TG-IR) analysis was performed on a TA Instruments Q5000 IR thermogravimetric (TG) analyzer interfaced to a Magna-IR 560® Fourier transform infrared (FT-IR) spectrophotometer (Thermo Nicolet) equipped with an Ever-Glo mid/far IR source, a potassium bromide (KBr) beamsplitter, and a mercury cadmium telluride (MCT-A) detector. The FT-IR wavelength verification was performed using polystyrene, and the TG calibration standards were nickel and Alumel™. The sample was placed in a platinum sample pan and the pan was inserted into the TG furnace. The TG instrument was started first, immediately followed by the FT-IR instrument. The TG instrument was operated under a flow of helium at 90 and 10 cc/minute for the purge and balance, respectively. The furnace was heated under helium at a rate of 20° C./minute to a final temperature of approximately 140° C. IR spectra were collected approximately every 32 seconds for approximately 7.5 minutes. Each IR spectrum represents 32 co-added scans collected at a spectral resolution of 4 cm-1. Volatiles were identified from a search of the High Resolution Nicolet Vapor Phase spectral library. […]

[5] = Six-month stability study at 40° C./75% RH; format: physicochemical
Procedure: as §1

[6] = tested on: CDK4/6-dependent tumorigenic cell lines including breast, melanoma, leukemia, and lymphoma cells; details: variety of CDK4/6-dependent tumorigenic cell lines; cited from earlier work
[7] = Phase 1a toxicity trial in 75 women; format: in vivo, human
RB phosphorylation = details: in vitro and in vivo; cited from earlier work
[8] = Solubility estimate by aliquot addition with visual observation; format: physicochemical; details: thermodynamic from solid
Procedure: Solubility estimates of impure Form B were attempted in various predominantly HCl acidic aqueous acetone solvent mixtures using an aliquot addition method that involved visual observation. Aliquots of various solvents or diluent/organic solvent mixtures were added to measured amounts of impure Form B with agitation (typically sonication) at ambient temperature until complete dissolution was achieved, as judged by visual observation. Solubilities were calculated based on the total solvent used to give a solution; actual solubilities may be greater because of the volume of solvent portions utilized or a slow rate of dissolution. […] If dissolution occurred at the first aliquot, the value was reported as “>”. Due to the haziness of the obtained samples, effective solubility estimates were difficult to discern.

With CC(C)N1CCN(c2ccc(Nc3ncc4cc5n(c4n3)C3(CCCCC3)CNC5=O)nc2)CC1 [Form A] the “XRPD pattern / stability after thermal stress” value (“XRPD pattern / stability” below) [1] was “A new pattern; also recorded: converted to a new Form”, the “XRPD after equilibrium at room temperature” value ([1]; three further days at room temperature after 60° C. for 7 days) was “converted back to Form A; also recorded: changed back to Form A” and the “stability in the moisture sorption experiment” value [2] was “unstable; also recorded: not stable”. For the same compound, the “XRPD (post DVS)” value [2] was “Form K”, the “% wt change at 60% RH” value [2] was 14.9 wt % and the “% wt change at 90% RH” value [2] was 15.8 wt %.
For CC(C)N1CCN(c2ccc(Nc3ncc4cc5n(c4n3)C3(CCCCC3)CNC5=O)nc2)CC1 [Form B], the “XRPD pattern / stability” value [1] was “stable; also recorded: No change; also recorded: remained unchanged”, the “time stable in long-term stability study” value ([3]; 25° C. and 60% relative humidity) was “at least 1 year” and the Appearance ([3]; 0 M) was “Yellow”. For the same compound, the “HPLC Purity” value ([3]; 0 M) was 99.5%, the “Moisture (%)” value ([3]; 0 M) was 4.9% and the XRPD ([3]; 0 M) was “Form B”. For the same compound, the Appearance ([3]; 3 M) was “Yellow solid”, the “HPLC Purity” value ([3]; 3 M) was 99.5% and the “Moisture (%)” value ([3]; 3 M) was 4.07%. The Appearance ([3]; 6 M) was “Yellow”, the “HPLC Purity” value ([3]; 6 M) was 99.5% and the “Moisture (%)” value ([3]; 6 M) was 7.53%. The Appearance ([3]; 9 M) was “Yellow solid”, the “HPLC Purity” value ([3]; 9 M) was 99.6% and the “Moisture (%)” value ([3]; 9 M) was 7.29%. The Appearance ([3]; 12 M) was “Yellow”, the “HPLC Purity” value ([3]; 12 M) was 99.5% and the “Moisture (%)” value ([3]; 12 M) was 7.48%. For the same compound, the XRPD ([3]; 12 M) was “conformed to the reference spectrum; also recorded: Form B”, the “stability in the moisture sorption experiment” value [2] was “stable” and the “XRPD (post DVS)” value [2] was “remained in Form B; also recorded: remained unchanged as Form B”. For the same compound, the “% wt change at 60% RH” value [2] was 5.8 wt %, the “% wt change at 90% RH” value [2] was 5.9 wt % and the “volatiles released during TG-IR” value [4] was “only water, and no hydrogen chloride, was released”. For the same compound, the Appearance ([5]; 0 M) was “Yellow solid”, the “HPLC Purity” value ([5]; 0 M) was 99.5% and the “Moisture (%)” value ([5]; 0 M) was 4.9%. For the same compound, the XRPD ([5]; 0 M) was “Form B”, the Appearance ([5]; 1 M) was “Yellow solid” and the “HPLC Purity” value ([5]; 1 M) was 99.5%. The “Moisture (%)” value ([5]; 1 M) was 2.75%, the Appearance ([5]; 3 M) was “Yellow solid” and the “HPLC Purity” value ([5]; 3 M) was 99.5%. The “Moisture (%)” value ([5]; 3 M) was 7.47%, the XRPD ([5]; 3 M) was “Form B” and the Appearance ([5]; 6 M) was “Yellow solid”. For the same compound, the “HPLC Purity” value ([5]; 6 M) was 99.5%, the “Moisture (%)” value ([5]; 6 M) was 7.53% and the XRPD ([5]; 6 M) was “conformed to the reference spectrum; also recorded: Form B”.
With CC(C)N1CCN(c2ccc(Nc3ncc4cc5n(c4n3)C3(CCCCC3)CNC5=O)nc2)CC1 [Form C] the “XRPD pattern / stability” value [1] was “remained unchanged”.
In the case of CC(C)N1CCN(c2ccc(Nc3ncc4cc5n(c4n3)C3(CCCCC3)CNC5=O)nc2)CC1 [Form D], the “XRPD pattern / stability” value [1] is reported as “No change”, the “stability in the moisture sorption experiment” value [2] is reported as “unstable; also recorded: not stable” and the “XRPD (post DVS)” value [2] is reported as “Form K”. For the same compound, the “% wt change at 60% RH” value [2] was 4.4 wt %.
In the case of CC(C)N1CCN(c2ccc(Nc3ncc4cc5n(c4n3)C3(CCCCC3)CNC5=O)nc2)CC1 [Form G1T38, 2′-((5-(4-isopropylpiperazin-1-yl)pyridin-2-yl)amino)-7′,8′-dihydro-6′H-spiro[cyclohexane-1,9′-pyrazino[1′,2′:1,5]pyrrolo[2,3-d]pyrimidin]-6′-one], the “inhibition of cell proliferation” value [6] is given as “induces inhibition of cell proliferation”, the tolerability [7] is given as “well tolerated with no significant adverse events” and the “inhibition of RB phosphorylation” value (RB phosphorylation) is given as “inhibits RB phosphorylation”.
Compound CC(C)N1CCN(c2ccc(Nc3ncc4cc5n(c4n3)C3(CCCCC3)CNC5=O)nc2)CC1 [Impure Form B] has a solubility ([8]; aqueous buffer, 2.0M HCl, ambient, read-out: Solubility) of 4000 µg/mL (≈ 8.43 mM), a solubility ([8]; aqueous buffer, 5.0M HCl, ambient, read-out: Solubility) of 3000 µg/mL (≈ 6.32 mM) and a solubility ([8]; aqueous buffer, 5.0M HCl:water 1:2, ambient, read-out: Solubility) of 7000 µg/mL (≈ 14.7 mM). For the same compound, the solubility ([8]; aqueous with cosolvent or surfactant or cyclodextrin, 1M HCl:acetone 50:50, ambient, read-out: Solubility) was 4000 µg/mL (≈ 8.43 mM), the solubility ([8]; aqueous with cosolvent or surfactant or cyclodextrin, 1M HCl:acetone 60:40, ambient, read-out: Solubility) was 4000 µg/mL (≈ 8.43 mM) and the solubility ([8]; aqueous with cosolvent or surfactant or cyclodextrin, 1M HCl:acetone 67:33, ambient, read-out: Solubility) was 6000 µg/mL (≈ 12.6 mM). The solubility ([8]; aqueous with cosolvent or surfactant or cyclodextrin, 1.0M HCl:acetone 75:25, ambient, read-out: Solubility) was 7000 µg/mL (≈ 14.7 mM), the solubility ([8]; aqueous with cosolvent or surfactant or cyclodextrin, predominantly HCl acidic aqueous acetone solvent mixtures, ambient temperature, read-out: solubility in the tested solvent mixtures) was 3000 to 7000 µg/mL (≈ 6.32 to 14.7 mM) and the solubility ([8]; organic solvent or mixture, 0.1M HCl:acetone 20:80, ambient, read-out: Solubility) was < 1000 µg/mL. The solubility ([8]; organic solvent or mixture, 0.5M HCl:acetone 10:90, ambient, read-out: Solubility) was < 1000 µg/mL, the solubility ([8]; organic solvent or mixture, 0.5M HCl:acetone 20:80, ambient, read-out: Solubility) was < 1000 µg/mL and the solubility ([8]; organic solvent or mixture, 1M HCl:acetone 5:95, ambient, read-out: Solubility) was < 1000 µg/mL. For the same compound, the solubility ([8]; organic solvent or mixture, 1M HCl:acetone 10:90, ambient, read-out: Solubility) was < 1000 µg/mL, the solubility ([8]; organic solvent or mixture, 1M HCl:acetone 20:80, ambient, read-out: Solubility) was < 1000 µg/mL and the solubility ([8]; organic solvent or mixture, 1M HCl:acetone 33:67, ambient, read-out: Solubility) was 2000 µg/mL (≈ 4.21 mM). The solubility ([8]; organic solvent or mixture, Water:acetone 1:2, ambient, read-out: Solubility) was 3000 µg/mL (≈ 6.32 mM), the solubility ([8]; Water, ambient, read-out: Solubility) was < 7000 µg/mL and the solubility ([8]; water:acetone 3:1, aqueous with cosolvent or surfactant or cyclodextrin, Water:cetone 3:1, ambient, read-out: Solubility) was < 3000 µg/mL.
